Series [1] concerns Ty-82. Kind of series: Antiproliferative activity against human Ty-82 cells incubated for 72 hrs by sulforhodamine B based cell counting kit-8 assay. The format is functional. Conditions: TY82, 72 h. (In general: Formazan colour is commonly taken as a measure of viable cells.)
Series [2] deals with MM1.S. Kind of series: Antiproliferative activity against human MM1.S cells incubated for 72 hrs by sulforhodamine B based cell counting kit-8 assay. The format is functional.
Series [3] in a line: Metabolic stability in mouse liver microsomes assessed as clearance. The class given is ADME, Microsome. Conditions: read-out: CLH. (In general: Liver microsomes are a subcellular fraction often used to study metabolism.)
Series [4] can be described thus: Metabolic stability in human liver microsomes assessed as half life. The class given is ADME, Microsome.
The nature of series [5]: Metabolic stability in mouse liver microsomes assessed as half life. The class given is ADME, Microsome.
Series [6] in a line: Metabolic stability in dog liver microsomes assessed as half life. The format is ADME, Canis lupus familiaris, Microsome.
Series [7] in a line: Metabolic stability in human liver microsomes assessed as clearance. The class given is ADME, Microsome. Conditions: read-out: CLH.
The nature of series [8]: Metabolic stability in dog liver microsomes assessed as clearance. The class given is ADME, Canis lupus familiaris, Microsome. Conditions: read-out: CLH.
The nature of series [9]: AUClast in CD-1 mouse at 10 mg/kg, po. Details: dose 10 mg/kg, route po. The format is ADME, organism-based. To be noted: in vivo.
Series [10] in a line: Observed AUC infinity in CD-1 mouse at 10 mg/kg, po. Also noted: dose 10 mg/kg, route po. The class given is ADME, organism-based. Conditions: in vivo.
Series [11] in a line: Tmax in CD-1 mouse at 10 mg/kg, po. The class given is ADME, organism-based. Conditions: in vivo.
The nature of series [12]: Half life in CD-1 mouse at 10 mg/kg, po. The class given is ADME, organism-based. Conditions: in vivo.
The nature of series [13]: Cmax in CD-1 mouse at 10 mg/kg, po. The class given is ADME, organism-based. Details: dose 10 mg/kg, route po. To be noted: in vivo.
A short description of series [14]: Observed MRT infinity in CD-1 mouse at 10 mg/kg, po. To be noted: in vivo. The format is ADME, organism-based.
The subject of series [15] is MV4-11. Briefly: Antiproliferative activity against human MV4-11 cells. The class given is functional, cell-based.
Series [16] is described as follows: Toxicity in BALB/c mouse xenografted with human Ty-82 assessed as body weight loss treated at 0.25 to 0.5 mg/kg, po qd for 21 days. Conditions: in vivo, 504 h, dose 0.25-0.5 mg/kg, time 21 day. The format is organism-based.
Series [17] can be described thus: Toxicity in BALB/c mouse xenografted with human Ty-82 assessed as death treated at 0.25 to 0.5 mg/kg, po qd for 21 days. Conditions: in vivo, 504 h, dose 0.25-0.5 mg/kg, time 21 day. The class given is organism-based.
In series [18] the test system is Ty-82. Kind of series: Antitumor activity against human Ty-82 cells xenografted in BALB/c nude mouse assessed tumor growth inhibition treated at 0.5 mg/kg, po qd for 21 days relative to control. The format is functional. Conditions: TY82, 504 h, time 21 day, read-out: TGI. (In general: In xenograft studies the graft and the host belong to different species.)

Structures are written as SMILES.

One may read the IC50 as the point on the concentration scale where inhibition reaches its midpoint. Consider `Cc1ccc(-n2nc(C(=O)N3CC4(C3)CN(C(=O)c3nc(-c5ccc6c(c5)N(C5CCCC5)[C@H](C)C(=O)N6C)n(-c5ccc(C)cc5)n3)C4)nc2-c2ccc3c(c2)N(C2CCCC2)[C@H](C)C(=O)N3C)cc1`, for which the figures for the IC50 in [1] and in series [2] were 76000 pM and 12600 pM, respectively.
Usually half-life stands for the time in which the quantity being followed falls by half. As to `Cc1ccc(-n2nc(C(=O)N3C[C@H](C)N(C(=O)c4nc(-c5ccc6c(c5)N(C)[C@H](C)C(=O)N6C)n(-c5ccc(C)cc5)n4)C[C@H]3C)nc2-c2ccc3c(c2)N(C)[C@H](C)C(=O)N3C)cc1`, the microsomal CLint in [3] turned out to be 12.6 µL/min/mg; in series [7], 6.4 µL/min/mg; in [8] it was 7.6 µL/min/mg. Also, the half-life turned out to be 3.62 h in [4], 1.84 h in [5] and 3.02 h in [6].
The AUC(0-t) is the area under the concentration-time curve up to a stated or last time point. For orientation: AUC(0-inf) means total exposure, with the tail of the curve extrapolated. Low readings indicate low exposure, high ones high exposure. Usually Tmax stands for the time at which the peak concentration occurs. The term Cmax denotes the highest concentration seen after dosing. By MRT is commonly meant a mean duration of stay, worked out from the concentration-time curve. On to `Cc1ccc(-n2nc(C(=O)NCCCNC(=O)c3nc(-c4ccc5c(c4)N(C4CCCC4)[C@H](C)C(=O)N5C)n(-c4ccc(C)cc4)n3)nc2-c2ccc3c(c2)N(C2CCCC2)[C@H](C)C(=O)N3C)cc1`, for which the AUC(0-t) in [9] was 71.5 ng·h/mL. For the same compound, the AUC(0-inf) in series [10] came out at 75.8 ng·h/mL. In series [11], the Tmax is 0.58 h. The compound also showed a half-life in series [12] of 0.74 h. The concentration in series [13] peaked (Cmax) at 58.1 ng/mL. The compound further registered an MRT in series [14] of 1.75 h.
As to `Cc1ccc(-n2nc(C(=O)N3C[C@H](C)N(C(=O)c4nc(-c5ccc6c(c5)N(Cc5ccccc5)[C@H](C)C(=O)N6C)n(-c5ccc(C)cc5)n4)C[C@H]3C)nc2-c2ccc3c(c2)N(Cc2ccccc2)[C@H](C)C(=O)N3C)cc1`, the results for the IC50 in series [1] and in [2] were 1120 pM and 1770 pM, respectively.
In the case of `Cc1ccc(-n2nc(C(=O)NCCNC(=O)c3nc(-c4ccc5c(c4)N(C4CCCC4)[C@H](C)C(=O)N5C)n(-c4ccc(C)cc4)n3)nc2-c2ccc3c(c2)N(C2CCCC2)[C@H](C)C(=O)N3C)cc1`, in [11], the time of peak concentration (Tmax) stood at 2.76 h. The concentration in series [13] peaked (Cmax) at 33.7 ng/mL.
As to `Cc1ccc(-n2nc(C(=O)N3CCC4(CCN(C(=O)c5nc(-c6ccc7c(c6)N(C6CCCC6)[C@H](C)C(=O)N7C)n(-c6ccc(C)cc6)n5)C4)C3)nc2-c2ccc3c(c2)N(C2CCCC2)[C@H](C)C(=O)N3C)cc1`, the IC50 amounted to 2500 pM in series [1] and 740 pM in series [2].
The compound `Cc1sc2c(c1C)C(c1ccc(Cl)cc1)=N[C@@H](CC(=O)NCCOCCOCCOCCOCCOCCOCCOCCNC(=O)C[C@@H]1N=C(c3ccc(Cl)cc3)c3c(sc(C)c3C)-n3c(C)nnc31)c1nnc(C)n1-2` gave an IC50 in series [15] of 170 pM.
In the case of `Cc1ccc(-n2nc(C(=O)N3C[C@H](C)N(C(=O)c4nc(-c5ccc6c(c5)N(C5CCC5)[C@H](C)C(=O)N6C)n(-c5ccc(C)cc5)n4)C[C@H]3C)nc2-c2ccc3c(c2)N(C2CCC2)[C@H](C)C(=O)N3C)cc1`, the Activity result in series [16] is recorded as “Toxic”; in series [17] it was “Non-Toxic”. Moreover, the IC50 in series [1] was 50 pM; in [2], 40 pM. In addition, the microsomal CLint stood at 2.4 µL/min/mg in [3], 0.5 µL/min/mg in series [7] and 0.7 µL/min/mg in series [8]. Further, the results for the half-life in series [4], in series [5] and in series [6] were 48.7 h, 9.48 h and 34.7 h, respectively. Further, in [18], the inhibition in vivo at 0.5 mg/kg amounted to 61%.
Regarding `C[C@@H]1C(=O)N(C)c2ccc(-c3nc(C(=O)N4CCN(C(=O)c5nc(-c6ccc7c(c6)N(C6CCCC6)[C@H](C)C(=O)N7C)n(-c6ccc7ccccc7c6)n5)CC4)nn3-c3ccc4ccccc4c3)cc2N1C1CCCC1`, the IC50 in [1] was found to be 600 pM; in [2], 510 pM.
As to `Cc1ccc(-n2nc(C(=O)N3CCCN(C(=O)c4nc(-c5ccc6c(c5)N(C5CCCC5)[C@H](C)C(=O)N6C)n(-c5ccc(C)cc5)n4)CC3)nc2-c2ccc3c(c2)N(C2CCCC2)[C@H](C)C(=O)N3C)cc1`, the AUC(0-t) in series [9] came to 368 ng·h/mL. This compound also gave an AUC(0-inf) in series [10] of 371 ng·h/mL. Further, the Tmax in [11] worked out at 0.5 h. The compound further gave a half-life in series [12] of 0.15 h. The same compound showed a Cmax in series [13] of 286 ng/mL. Besides, the MRT in [14] is 2.57 h.

Values taken from ChEMBL document CHEMBL5352381, “Design and development of a novel series of oral bivalent BET inhibitors with potent anticancer activities” (Eur J Med Chem, 2022).
